Results on two molecules are retold here after patent publication US10610507B2, “Methods for the treatment of sialorrhea” (NeuRX Pharmaceuticals LLC, priority 2012, dated 2020).

Series [1] can be described thus: Human liver microsome incubation study (metabolic stability).
For series [2] the following is noted: cited from earlier work.
Another series can be described thus: in vitro. The settings on record: human, liver microsomes. (In general: Microsomes from liver hold many membrane-bound enzymes, among them those of drug oxidation.)
[3] abbreviates: human liver microsome incubation.

In the case of `CCNCC#CCOC(=O)C(O)(c1ccccc1)C1CCCCC1` (stereo not shown) [N-desethyloxybutynin, 4-(ethylamino) but-2-ynyl2-cyclohexyl-2-hydroxy-2-phenylacetate], the “stability to metabolism by human liver microsomes relative to oxybutynin” value in series [1] (compared with oxybutynin) stood at 10 times. For the same molecule, in series [1] (setting [3]), the Clint turned out to be 0.0218 ml/min/mg protein and the “Half Life” value is on record as >60 (63.6) mins.
The term half-life denotes the time in which the quantity being followed falls by half. High values mean slow loss, low ones fast loss. As a reminder, the microsomal CLint is the capacity of the preparation to metabolise the compound, expressed as a volume cleared per time. A lower microsomal CLint goes with slow turnover. For `CCN(CC)CC#CCOC(=O)C(O)(c1ccccc1)C1CCCCC1` (racemic) [Oxybutynin], the absolute bioavailability result in series [2] (administered orally) was “about 6%”. Further, the oral bioavailability entry in series [2] (after oral administration, pre-systemic metabolism) is “approximately 6.2%”. Further, in series [2] (after oral administration), the “inter individual variation in maximal oxybutynin plasma concentration (Cmax)” value is 8 fold and the “inter individual variation in oxybutynin AUC” value is 13 fold. The “increase of oxybutynin plasma levels” value in series [2] (co-administered with ketoconazole vs without ketoconazole) was 3-4 fold. Besides, in the series “in vitro”, the half-life worked out at 5.2 min and the intrinsic metabolic clearance (microsomal CLint) stood at 267 µL/min/mg.
